Molecular target: Btk (Homo sapiens (Human), UniProt Q06187)
Assay: Btk in vitro inhibitory activity (one of Method A TR-FRET, Method B mobility shift, Method C radiometric filter binding)
Assay type: biochemical
Details: determined using one of the methods outlined in Example 36a, 36b and 36c
Method: Btk kinase activity is determined using a time-resolved fluorescence resonance energy transfer (TR-FRET) methodology. Measurements are performed in a reaction volume of 50 μL using 96-well assay plates. […] The reaction is quenched by the addition of 1.2 equivalents of EDTA (relative to divalent cation) in 25 μL of 1× Lance buffer (Perkin-Elmer). […] The TR-FRET signal is measured on a multimode plate reader with an excitation wavelength (λEx) of 330 nm and detection wavelengths (λEm) of 615 and 665 nm. Activity is determined by the ratio of the fluorescence at 665 nm to that at 615 nm. For each compound, enzyme activity is measured at various concentrations of compound. Negative control reactions are performed in the absence of inhibitor in replicates of six, and two no-enzyme controls are used to determine baseline fluorescence levels Inhibition constants, Ki(app), ware obtained using the program BatchKi (Kuzmic et al. (2000), Anal. Biochem. 286:45-50). IC50s are obtained according to the equation: IC50={Ki(app)/(1+[ATP]/Km^ATP)}+[E]total/2;
Kinase activity is measured in vitro using electrophoretic mobility shift assay. The kinase reactions are assembled in a total volume of 25 μL in 384 well plates. […] The reaction is incubated for one hour and is quenched by the addition of 45 μL of termination buffer (100 mM HEPES, pH7.5, 0.01% Triton X-100, 30 mM EDTA). The terminated reactions are analyzed using 12 channel LabChip® 3000 microfluidic detection instrument (Caliper Life Sciences). […] Change in the relative fluorescence intensity of the substrate and product peaks is the parameter measured, reflecting enzyme activity. In the presence of an inhibitor, the ratio between product and substrate is altered: the signal of the product decreases, while the signal of the substrate increases.
Activity in each sample is determined as the product to sum ratio (PSR):P/(S+P), where P is the peak height of the product peptide and S is the peak height of the substrate peptide. For each compound, enzyme activity is measured at various concentrations (12 concentrations of compound spaced by 3× dilution intervals). Negative control samples (0%-inhibition in the absence of inhibitor) and positive control samples (100%-inhibition, in the presence of 20 mM EDTA) are assembled in replicates of four and are used to calculate %-inhibition values for each inhibitor at each concentration. Percent inhibition (Pinh) is determined using following equation: Pinh=(PSR0%−PSRinh)/(PSR0%−PSR100%)*100, where PSRinh is the product sum ratio in the presence of inhibitor, PSR0% is the average product sum ration in the absence of inhibitor and PSR100% is the average product sum ratio in 100%-inhibition control samples;
The IC50 values of inhibitors are determined by 4 parameter sigmoidal dose-response model fitting of the inhibition curves (Pinh versus inhibitor concentration) using XLfit 4 software.
IC50 values and curve fits were obtained using Prism (GraphPad Software).
The degree of Btk inhibition was determined using one of the methods outlined in Example 36a, 36b and 36c.

Sequence of Btk (Q06187 whole entry): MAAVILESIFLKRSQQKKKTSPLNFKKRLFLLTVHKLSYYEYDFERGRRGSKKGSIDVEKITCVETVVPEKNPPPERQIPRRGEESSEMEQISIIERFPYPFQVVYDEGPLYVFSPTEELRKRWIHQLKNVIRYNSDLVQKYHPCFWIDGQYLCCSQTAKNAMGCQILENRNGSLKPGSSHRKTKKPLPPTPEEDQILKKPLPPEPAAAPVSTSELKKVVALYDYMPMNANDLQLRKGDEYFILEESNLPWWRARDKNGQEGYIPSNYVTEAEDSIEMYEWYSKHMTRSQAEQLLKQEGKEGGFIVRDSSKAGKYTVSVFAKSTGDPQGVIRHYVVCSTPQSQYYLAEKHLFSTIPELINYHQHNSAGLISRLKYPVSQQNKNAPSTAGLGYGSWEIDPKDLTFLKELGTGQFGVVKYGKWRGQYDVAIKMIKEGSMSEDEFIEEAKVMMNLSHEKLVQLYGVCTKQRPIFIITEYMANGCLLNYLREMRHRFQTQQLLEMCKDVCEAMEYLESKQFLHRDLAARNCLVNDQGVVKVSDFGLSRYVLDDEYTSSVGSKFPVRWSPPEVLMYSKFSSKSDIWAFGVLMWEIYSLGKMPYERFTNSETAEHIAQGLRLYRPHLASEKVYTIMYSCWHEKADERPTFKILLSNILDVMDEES

Structure (SMILES)	IC50 [nM]
CCc1ccnc(NC(=O)c2ccc(-n3c(=O)n(-c4cccc(N(C)C(=O)/C=C/CN(C)C)c4)c4ncnc(N)c43)cc2)c1 [Compound 8, (E)-4-(6-amino-9-(3-(4-(dimethylamino)-N-methylbut-2-enamido)phenyl)-8-oxo-8,9-dihydro-7H-purin-7-yl)-N-(4-ethylpyridin-2-yl)benzamide]	< 100
CN(C)C/C=C/C(=O)N(C)c1cccc(-n2c(=O)n(-c3ccc(C(=O)c4ccccc4)cc3)c3c(N)ncnc32)c1 [Compound 26, (E)-N-(3-(6-amino-7-(4-benzoylphenyl)-8-oxo-7H-purin-9(8H)-yl)phenyl)-4-(dimethylamino)-N-methylbut-2-enamide]	< 100
CN(C(=O)C1(C#N)CC1)c1cccc(-n2c(=O)n(-c3ccc(Oc4ccccc4)cc3)c3c(N)ncnc32)c1 [Compound 34, N-(3-(6-amino-8-oxo-7-(4-phenoxyphenyl)-7H-purin-9(8H)-yl)phenyl)-1-cyano-N-methylcyclopropanecarboxamide]	100 to 1000
C=CC(=O)N(C)c1cccc(-n2c(=O)n(-c3ccc(C(=O)Nc4ccccn4)cc3)c3c(N)ncnc32)c1 [Compound 29, 4-(6-amino-9-(3-(N-methylacrylamido)phenyl)-8-oxo-8,9-dihydro-7H-purin-7-yl)-N-(pyridin-2-yl)benzamide]	< 100
CN(C(=O)/C=C/CN1CCOCC1)c1cccc(-n2c(=O)n(-c3ccc(Oc4ccccc4)cc3)c3c(N)ncnc32)c1 [Compound 51, (E)-N-(3-(6-amino-8-oxo-7-(4-phenoxyphenyl)-7H-purin-9(8H)-yl)phenyl)-N-methyl-4-morpholinobut-2-enamide]	< 100
CNC(=O)/C(C#N)=C/c1cccc(-n2c(=O)n(-c3ccc(Oc4ccccc4)cc3)c3c(N)ncnc32)c1 [Compound 44, (E)-3-(3-(6-amino-8-oxo-7-(4-phenoxyphenyl)-7H-purin-9(8H)-yl)phenyl)-2-cyano-N-methylacrylamide]	< 100
CN(C)C/C=C/C(=O)N(C)c1cccc(-n2c(=O)n(-c3ccc(C(=O)Nc4ccccn4)cc3)c3c(N)ncnc32)c1 [Compound 6, (E)-4-(6-amino-9-(3-(4-(dimethylamino)-N-methylbut-2-enamido)phenyl)-8-oxo-8,9-dihydro-7H-purin-7-yl)-N-(pyridin-2-yl)benzamide]	< 100
Cc1cc(NC(=O)c2ccc(-n3c(=O)n(-c4cccc(N(C)C(=O)/C=C/CN(C)C)c4)c4ncnc(N)c43)cc2)sn1 [Compound 25, (E)-4-(6-amino-9-(3-(4-(dimethylamino)-N-methylbut-2-enamido)phenyl)-8-oxo-8,9-dihydro-7H-purin-7-yl)-N-(3-methylisothiazol-5-yl)benzamide]	100 to 1000
Cc1ccnc(NC(=O)c2ccc(-n3c(=O)n(-c4cccc(N(C)C(=O)/C=C/CN(C)C)c4)c4ncnc(N)c43)cc2)c1 [Compound 7, (E)-4-(6-amino-9-(3-(4-(dimethylamino)-N-methylbut-2-enamido)phenyl)-8-oxo-8,9-dihydro-7H-purin-7-yl)-N-(4-methylpyridin-2-yl)benzamide]	< 100
CCCc1ccnc(NC(=O)c2ccc(-n3c(=O)n(-c4cccc(N(C)C(=O)/C=C/CN(C)C)c4)c4ncnc(N)c43)cc2)c1 [Compound 9, (E)-4-(6-amino-9-(3-(4-(dimethylamino)-N-methylbut-2-enamido)phenyl)-8-oxo-8,9-dihydro-7H-purin-7-yl)-N-(4-propylpyridin-2-yl)benzamide]	< 100
CN(C(=O)/C=C/CN(C)C1CC1)c1cccc(-n2c(=O)n(-c3ccc(Oc4ccccc4)cn3)c3c(N)ncnc32)c1 [Compound 58, (E)-N-(3-(6-amino-8-oxo-7-(5-phenoxypyridin-2-yl)-7H-purin-9(8H)-yl)phenyl)-4-(cyclopropyl(methyl)amino)-N-methylbut-2-enamide]	< 100
CN(C)C/C=C/C(=O)N(C)c1cccc(-n2c(=O)n(-c3ccc(C(=O)Nc4ncccc4F)cc3)c3c(N)ncnc32)c1 [Compound 13, (E)-4-(6-amino-9-(3-(4-(dimethylamino)-N-methylbut-2-enamido)phenyl)-8-oxo-8,9-dihydro-7H-purin-7-yl)-N-(3-fluoropyridin-2-yl)benzamide]	100 to 1000
CN(C)C/C=C/C(=O)N(C)c1cccc(-n2c(=O)n(-c3ccc(C(=O)Nc4cncc(F)c4)cc3)c3c(N)ncnc32)c1 [Compound 15, (E)-4-(6-amino-9-(3-(4-(dimethylamino)-N-methylbut-2-enamido)phenyl)-8-oxo-8,9-dihydro-7H-purin-7-yl)-N-(5-fluoropyridin-3-yl)benzamide]	100 to 1000
CN(C)C/C=C/C(=O)N(C)c1cccc(-n2c(=O)n(-c3ccc(C(=O)Nc4cccc(C(F)(F)F)c4)cc3)c3c(N)ncnc32)c1 [Compound 11, (E)-4-(6-amino-9-(3-(4-(dimethylamino)-N-methylbut-2-enamido)phenyl)-8-oxo-8,9-dihydro-7H-purin-7-yl)-N-(3-(trifluoromethyl)phenyl)benzamide]	< 100
CN(C)C/C=C/C(=O)N(C)c1cccc(-n2c(=O)n(-c3ccc(C(=O)Nc4nc5c(s4)CCCC5)cc3)c3c(N)ncnc32)c1 [Compound 22, (E)-4-(6-amino-9-(3-(4-(dimethylamino)-N-methylbut-2-enamido)phenyl)-8-oxo-8,9-dihydro-7H-purin-7-yl)-N-(4,5,6,7-tetrahydrobenzo[d]thiazol-2-yl)benzamide]	< 100
CN(C(=O)/C=C/CN(C)C1CC1)c1cccc(-n2c(=O)n(-c3ncc(Oc4ccccc4)cn3)c3c(N)ncnc32)c1 [Compound 69, (E)-N-(3-(6-amino-8-oxo-7-(5-phenoxypyrimidin-2-yl)-7H-purin-9(8H)-yl)phenyl)-4-(cyclopropyl(methyl)amino)-N-methylbut-2-enamide]	< 100
C=CC(=O)N(C)c1cccc(-n2c(=O)n(-c3ccc(OC4CC4)cc3)c3c(N)ncnc32)c1 [Compound 30, N-(3-(6-amino-7-(4-cyclopropoxyphenyl)-8-oxo-7H-purin-9(8H)-yl)phenyl)-N-methylacrylamide]	< 100
CN(C)C/C=C/C(=O)N(C)c1cccc(-n2c(=O)n(-c3ccc(C(=O)Nc4ccc(Cl)cn4)cc3)c3c(N)ncnc32)c1 [Compound 17, (E)-4-(6-amino-9-(3-(4-(dimethylamino)-N-methylbut-2-enamido)phenyl)-8-oxo-8,9-dihydro-7H-purin-7-yl)-N-(5-chloropyridin-2-yl)benzamide]	< 100
Cc1csc(NC(=O)c2ccc(-n3c(=O)n(-c4cccc(N(C)C(=O)/C=C/CN(C)C)c4)c4ncnc(N)c43)cc2)n1 [Compound 20, (E)-4-(6-amino-9-(3-(4-(dimethylamino)-N-methylbut-2-enamido)phenyl)-8-oxo-8,9-dihydro-7H-purin-7-yl)-N-(4-methylthiazol-2-yl)benzamide]	< 100
CN(C(=O)/C=C/CN(C)C1CC1)c1cccc(-n2c(=O)n(-c3ccc(C(=O)c4ccccc4)cc3)c3c(N)ncnc32)c1 [Compound 27, (E)-N-(3-(6-amino-7-(4-benzoylphenyl)-8-oxo-7H-purin-9(8H)-yl)phenyl)-4-(cyclopropyl(methyl)amino)-N-methylbut-2-enamide]	< 100
CN(C(=O)/C=C/CN(C)C1CC1)c1cccc(-n2c(=O)n(-c3ccc(Oc4ccccc4)nc3)c3c(N)ncnc32)c1 [Compound 49, (E)-N-(3-(6-amino-8-oxo-7-(6-phenoxypyridin-3-yl)-7H-purin-9(8H)-yl)phenyl)-4-(cyclopropyl(methyl)amino)-N-methylbut-2-enamide]	< 100
